Experimental data as given in PubChem BioAssay (NCI).
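Test compounds were applied to cells in 96-well plates for 48 hours at 5 doses. TGI is the concentration that stops growth completely.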

Tests used:
Test in all cases: DTP human tumour cell line panel, 48 h
SW-620 colon = test system: SW-620 colon
SF-295 CNS = test system: SF-295 CNS
LOX IMVI melanoma = test system: LOX IMVI melanoma
OVCAR-4 ovarian = test system: OVCAR-4 ovarian
SK-MEL-5 melanoma = test system: SK-MEL-5 melanoma
MALME-3M melanoma = test system: MALME-3M melanoma
SNB-19 CNS = test system: SNB-19 CNS
NCI/ADR-RES ovarian = test system: NCI/ADR-RES ovarian
RPMI-8226 leukemia = test system: RPMI-8226 leukemia
SN12C renal = test system: SN12C renal
BT-549 breast = test system: BT-549 breast
SF-539 CNS = test system: SF-539 CNS
UO-31 renal = test system: UO-31 renal
OVCAR-3 ovarian = test system: OVCAR-3 ovarian
NCI-H522 lung = test system: NCI-H522 lung
OVCAR-8 ovarian = test system: OVCAR-8 ovarian
SF-268 CNS = test system: SF-268 CNS
UACC-62 melanoma = test system: UACC-62 melanoma
DU-145 prostate = test system: DU-145 prostate
KM12 colon = test system: KM12 colon
RXF 393 renal = test system: RXF 393 renal
NCI-H226 lung = test system: NCI-H226 lung
HOP-92 NSCLC = test system: HOP-92 NSCLC
EKVX NSCLC = test system: EKVX NSCLC
TK-10 renal = test system: TK-10 renal
OVCAR-5 ovarian = test system: OVCAR-5 ovarian
HCC-2998 colon = test system: HCC-2998 colon
CCRF-CEM leukemia = test system: CCRF-CEM leukemia
MOLT-4 leukemia = test system: MOLT-4 leukemia
UACC-257 melanoma = test system: UACC-257 melanoma
MCF7 breast = test system: MCF7 breast
786-0 renal = test system: 786-0 renal
COLO 205 colon = test system: COLO 205 colon
U251 CNS = test system: U251 CNS
SK-MEL-2 melanoma = test system: SK-MEL-2 melanoma
MDA-N = test system: MDA-N
HOP-62 NSCLC = test system: HOP-62 NSCLC
CAKI-1 renal = test system: CAKI-1 renal
A498 renal = test system: A498 renal
IGROV1 ovarian = test system: IGROV1 ovarian
PC-3 prostate = test system: PC-3 prostate
HL-60(TB) leukemia = test system: HL-60(TB) leukemia
MDA-MB-435 = test system: MDA-MB-435
ACHN renal = test system: ACHN renal
NCI-H23 lung = test system: NCI-H23 lung
SNB-75 CNS = test system: SNB-75 CNS
SR leukemia = test system: SR leukemia
HT29 colon = test system: HT29 colon
HCT-15 colon = test system: HCT-15 colon
A549 NSCLC = test system: A549 NSCLC
SK-MEL-28 melanoma = test system: SK-MEL-28 melanoma
T-47D breast = test system: T-47D breast
M14 melanoma = test system: M14 melanoma
HCT-116 colon = test system: HCT-116 colon
HS 578T breast = test system: HS 578T breast
K-562 leukemia = test system: K-562 leukemia
MDA-MB-231 breast = test system: MDA-MB-231 breast
NCI-H460 lung = test system: NCI-H460 lung
SK-OV-3 ovarian = test system: SK-OV-3 ovarian

Measured: TGI

C/C=C(/C)C(=O)OC1CC(C)[C@H]2CC(=O)C(C)=C2CC1C(C)(C)OC(C)=O (some centres undefined)
49.8 µM: HL-60(TB) leukemia
48.6 µM: UACC-62 melanoma
71.7 µM: NCI/ADR-RES ovarian
36.2 µM: LOX IMVI melanoma
68 µM: OVCAR-4 ovarian
> 100 µM: SW-620 colon | SF-295 CNS | SNB-19 CNS | SN12C renal | OVCAR-8 ovarian | SF-268 CNS | DU-145 prostate | NCI-H226 lung | EKVX NSCLC | TK-10 renal | OVCAR-5 ovarian | MCF7 breast | 786-0 renal | U251 CNS | MDA-N | CAKI-1 renal | IGROV1 ovarian | PC-3 prostate | ACHN renal | NCI-H23 lung | SNB-75 CNS | HT29 colon | HCT-15 colon | A549 NSCLC | SK-MEL-28 melanoma | HS 578T breast | K-562 leukemia | MDA-MB-231 breast
91.6 µM: KM12 colon
78 µM: HOP-92 NSCLC
54.6 µM: RXF 393 renal
76.8 µM: MOLT-4 leukemia
46.2 µM: T-47D breast
45.4 µM: OVCAR-3 ovarian
53 µM: NCI-H522 lung
41 µM: SF-539 CNS
29.7 µM: SK-MEL-5 melanoma
72.1 µM: HCC-2998 colon
27 µM: SK-MEL-2 melanoma
42.8 µM: NCI-H460 lung
63.8 µM: M14 melanoma
43.8 µM: COLO 205 colon
40.7 µM: HCT-116 colon
54 µM: MALME-3M melanoma
83.9 µM: UO-31 renal
95 µM: HOP-62 NSCLC
68.6 µM: MDA-MB-435
65.8 µM: CCRF-CEM leukemia
60.8 µM: RPMI-8226 leukemia
78.9 µM: SR leukemia
41.1 µM: A498 renal
85.4 µM: BT-549 breast
51.6 µM: UACC-257 melanoma

CC(C)C(=O)C(C)(C)CCc1ccccn1
> 100 µM: SW-620 colon | SF-295 CNS | LOX IMVI melanoma | OVCAR-4 ovarian | SK-MEL-5 melanoma | MALME-3M melanoma | SNB-19 CNS | NCI/ADR-RES ovarian | RPMI-8226 leukemia | SN12C renal | BT-549 breast | UO-31 renal | OVCAR-3 ovarian | NCI-H522 lung | OVCAR-8 ovarian | SF-268 CNS | UACC-62 melanoma | DU-145 prostate | KM12 colon | RXF 393 renal | NCI-H226 lung | HOP-92 NSCLC | EKVX NSCLC | TK-10 renal | OVCAR-5 ovarian | HCC-2998 colon | CCRF-CEM leukemia | UACC-257 melanoma | MCF7 breast | 786-0 renal | COLO 205 colon | U251 CNS | SK-OV-3 ovarian | SK-MEL-2 melanoma | MDA-N | HOP-62 NSCLC | CAKI-1 renal | A498 renal | IGROV1 ovarian | PC-3 prostate | HL-60(TB) leukemia | MDA-MB-435 | ACHN renal | NCI-H23 lung | SNB-75 CNS | SR leukemia | HT29 colon | HCT-15 colon | A549 NSCLC | SK-MEL-28 melanoma | T-47D breast | M14 melanoma | HCT-116 colon | HS 578T breast | K-562 leukemia | MDA-MB-231 breast | NCI-H460 lung

COc1ccc(-c2c3c(n(C4OC(CO)C(O)C(O)C4O)c(=S)c2C#N)CCC3)cc1 (centres undefined)
69.6 µM: OVCAR-3 ovarian
38.8 µM: SK-MEL-5 melanoma
85.4 µM: MOLT-4 leukemia
63.6 µM: RXF 393 renal
> 100 µM: SW-620 colon | SF-295 CNS | LOX IMVI melanoma | OVCAR-4 ovarian | MALME-3M melanoma | SNB-19 CNS | NCI/ADR-RES ovarian | RPMI-8226 leukemia | SN12C renal | BT-549 breast | SF-539 CNS | UO-31 renal | SF-268 CNS | UACC-62 melanoma | DU-145 prostate | KM12 colon | HOP-92 NSCLC | TK-10 renal | OVCAR-5 ovarian | HCC-2998 colon | CCRF-CEM leukemia | UACC-257 melanoma | MCF7 breast | 786-0 renal | COLO 205 colon | U251 CNS | SK-OV-3 ovarian | SK-MEL-2 melanoma | MDA-N | HOP-62 NSCLC | CAKI-1 renal | IGROV1 ovarian | PC-3 prostate | HL-60(TB) leukemia | MDA-MB-435 | ACHN renal | NCI-H23 lung | SNB-75 CNS | SR leukemia | HT29 colon | HCT-15 colon | A549 NSCLC | SK-MEL-28 melanoma | T-47D breast | M14 melanoma | HCT-116 colon | HS 578T breast | K-562 leukemia | MDA-MB-231 breast | NCI-H460 lung
